Reference: patent publication US20030175690A1 (priority 1999, published 2003)

Molecular target: NL4-3 protease (Human immunodeficiency virus type 1 group M subtype B, UniProt P12497)
Conditions: reference clone reconstructed with NL4-3 protease; HeLa cells; drug 0.1 μM; supernatant 48 hours after transfection
Description: Positive colonies were grown in 5 mL LB medium, the plasmids extracted, and HeLa cells grown to 50% confluence on an 8-well plate (Costar), transfected by lipofectin (Bethesda Research Laboratories) in triplicate using pΔproΔRTΔenv (0.5 μg) containing the exogenous HIV-1 PR sequences. […] The degree of inhibition of viral expression was documented by the ratio between the levels of p24Ag detected in the presence and in the absence of the anti-viral compound (R=p24Ag^drug,/p24Ag^medium). The percent Sensitivity Index (SI%=100×R^reference/R^sample) was introduced to normalise differences due to cell related variables among different experiments. Proteases displaying SI% values greater than 80% were considered fully sensitive; partially sensitive (intermediate phenotype) between 80 and 60%; and resistant when lower than 60%.
The HIV-1 PR coding sequences amplified from the 13 culture supernatants or directly from the 6 plasma samples were cloned into the pΔproΔRTΔenv nonreplicative backbone, and the resulting plasmids were transfected into semiconfluent HeLa cells. After 48 hours of incubation the supernatants were assayed for HIV-1 p24Ag concentration.
This index was determined by normalising the R value of each clinical sample (R^sample) to that of the NL4-3 reference strain (R^reference) evaluated in parallel experiment, according to the function SI%=100×R^reference/R^sample.

Question: How did the “production of HIV-1 p24Ag by the reference clone in the presence of drug, compared with PI-free medium” value turn out when CC(C)c1nc(CN(C)C(=O)N[C@H](C(=O)N[C@@H](Cc2ccccc2)C[C@H](O)[C@H](Cc2ccccc2)NC(=O)OCc2cncs2)C(C)C)cs1 [RTV, ritonavir] was run?
Answer: The value was “strongly inhibited”.
